Patent US4650900A, “Aminoalkyl substituted urea derivatives and method of treatment” (H. Lundbeck A/S, priority 1985, dated 1987)

Legend:
Assay type in all cases: in vivo
[1] = tested on: P 388 lymphocytic leukaemia; test: Antitumor test in mice, P 388 lymphocytic leukaemia model (ILS %)
Description: (§1) The compound N-(4-dimethylamino-2,2-diphenyl-3-methyl-1-butyl)-urea, (in the following called Lu 9-110), has been tested in mice given several daily/weekly injections against the following experimental model tumors:
P 388 lymphocytic leukaemia

[2] = Preliminary toxicity experiments over 1 and 4 weeks (myelosuppression); conditions: repeated administration, mice
[3] = Toxicity of Lu 9-110 (LD10, LD50); conditions: for LD50: mouse, in vivo, ip
[4] = tested on: Ehrlich Ascites tumor (EAT); test: Antitumor test in mice, Ehrlich Ascites tumor (EAT) model (ILS %); conditions: i.p. suspension in methylcellulose, q 8 hrs × 6, 150 mg/kg
Description: as §1
Ehrlich Ascites tumor (EAT)

[5] = tested on: L 1210 lymphoid leukaemia; test: Antitumor test in mice, L 1210 lymphoid leukaemia model (ILS %); conditions: L 1210, i.p. suspension in methylcellulose, q 8 hrs × 6, 150 mg/kg
Description: as §1
L 1210 lymphoid leukaemia

[6] = i.p. solution, accumulated dose
[7] = i.p. suspension, accumulated dose (independent of schedule)

CC(CN(C)C)C(CNC(N)=O)(c1ccccc1)c1ccccc1 (stereo not shown) [Lu 9-110, N-(4-Dimethylamino-2,2-diphenyl-3-methyl-1-butyl)-urea]
ILS % ([1]; P 388, aqueous solution, q 3 hrs × 8, 50 mg/kg): 67% | ILS % ([1]; P 388, aqueous solution, q 8 hrs × 3, 100 mg/kg): 33% | ILS % ([1]; P 388, aqueous solution, ×1, 100 mg/kg): 9% | ILS % ([1]; P 388, i.p. suspension in methylcellulose, q 8 hrs × 6, 150 mg/kg): 92% | myelosuppression [2]: only very slight myelosuppression | LD10 [3, 6]: 300 to 500 mg/kg | LD10 ([3]; i.p. solution, single dose): ~ 100 mg/kg | LD10 [3, 7]: ~ 1100 mg/kg | LD50 [3, 6]: 400 to 600 mg/kg | LD50 ([3]; i.p. solution, single dose): ~150 mg/kg | LD50 [3, 7]: ~1400 mg/kg | ILS % [4]: 120% | ILS % [5]: 33%
